Measurements: patent publication US20250024871A1, “AMIDE COMPOUNDS AND THEIR USE AS FLAVOR MODIFIERS” (Firmenich Incorporated, priority 2021, published 2025)

Molecular target: T1, T1R umami taste receptor (Homo sapiens, UniProt Q7RTX0+Q7RTX1)
T1 sequence (Q7RTX1 21-841): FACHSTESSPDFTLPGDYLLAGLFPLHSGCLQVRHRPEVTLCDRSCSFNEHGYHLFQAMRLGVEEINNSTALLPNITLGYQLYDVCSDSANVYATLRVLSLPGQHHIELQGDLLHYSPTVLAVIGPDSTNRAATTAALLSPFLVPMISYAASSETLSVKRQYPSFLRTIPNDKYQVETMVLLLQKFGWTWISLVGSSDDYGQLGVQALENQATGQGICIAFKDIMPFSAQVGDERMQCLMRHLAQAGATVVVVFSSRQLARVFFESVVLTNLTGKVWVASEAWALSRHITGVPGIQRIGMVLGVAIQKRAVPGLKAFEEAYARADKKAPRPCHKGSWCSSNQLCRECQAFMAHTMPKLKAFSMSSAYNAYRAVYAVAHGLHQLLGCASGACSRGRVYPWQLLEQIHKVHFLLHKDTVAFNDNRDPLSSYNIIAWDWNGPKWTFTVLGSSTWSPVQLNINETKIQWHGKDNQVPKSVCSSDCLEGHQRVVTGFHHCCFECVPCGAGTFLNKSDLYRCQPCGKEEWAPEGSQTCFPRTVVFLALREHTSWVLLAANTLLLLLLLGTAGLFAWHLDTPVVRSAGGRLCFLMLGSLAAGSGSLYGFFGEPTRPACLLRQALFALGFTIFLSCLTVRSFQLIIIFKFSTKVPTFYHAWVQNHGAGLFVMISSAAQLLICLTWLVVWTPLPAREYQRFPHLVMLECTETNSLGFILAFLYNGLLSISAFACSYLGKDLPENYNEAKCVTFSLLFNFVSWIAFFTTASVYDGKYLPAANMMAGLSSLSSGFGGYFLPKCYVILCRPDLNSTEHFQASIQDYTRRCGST
T1 sequence (Q7RTX0 21-852): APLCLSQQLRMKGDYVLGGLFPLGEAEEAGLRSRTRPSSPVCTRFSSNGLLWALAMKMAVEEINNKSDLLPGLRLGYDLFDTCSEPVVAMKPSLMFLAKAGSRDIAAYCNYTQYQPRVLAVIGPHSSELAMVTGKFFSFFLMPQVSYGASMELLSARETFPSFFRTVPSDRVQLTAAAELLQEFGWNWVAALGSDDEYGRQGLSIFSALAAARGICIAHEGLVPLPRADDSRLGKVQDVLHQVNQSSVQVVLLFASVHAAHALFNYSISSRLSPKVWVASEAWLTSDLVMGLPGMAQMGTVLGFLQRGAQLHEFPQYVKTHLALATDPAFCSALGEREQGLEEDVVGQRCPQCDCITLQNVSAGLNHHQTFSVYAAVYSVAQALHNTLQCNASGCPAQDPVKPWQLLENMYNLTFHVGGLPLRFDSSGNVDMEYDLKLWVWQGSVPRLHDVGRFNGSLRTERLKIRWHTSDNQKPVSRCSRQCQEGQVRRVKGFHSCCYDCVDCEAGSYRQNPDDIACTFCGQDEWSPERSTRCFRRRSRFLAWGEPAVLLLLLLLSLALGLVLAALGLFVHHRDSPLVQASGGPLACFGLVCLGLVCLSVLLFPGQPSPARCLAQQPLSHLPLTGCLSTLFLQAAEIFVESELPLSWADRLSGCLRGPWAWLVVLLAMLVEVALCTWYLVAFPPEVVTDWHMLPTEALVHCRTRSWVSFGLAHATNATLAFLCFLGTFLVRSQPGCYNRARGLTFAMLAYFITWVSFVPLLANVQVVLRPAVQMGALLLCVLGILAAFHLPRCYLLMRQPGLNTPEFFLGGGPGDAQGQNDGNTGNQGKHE
Test: in vitro cell-based assay having cells that express the T1R umami taste receptor (enhancement of MSG)
Settings: for EC50: cells expressing T1R umami taste receptor, read-out: EC50 for enhancement of MSG binding
Description: Each of Compounds 101-183 was synthesized according to one of the general procedures set forth above in Examples 1. Thereafter, the compounds were tested in an in vitro cell-based assay having cells that express the T1R umami taste receptor. Dose-binding curves were recorded and the EC50 was determined for enhancement of MSG binding. Table 2 sets forth the calculated EC50 values for certain tested compounds as well as the MSG enhancement ratio at a particular concentration.

Compound | EC50 | MSG Enh. Ratio (compound at 50 μM) | MSG Enh. Ratio (compound at 10 μM)
CCC/C=C/C(=O)N[C@H](C(=O)OCC)C(C)C [Compound 175, Ethyl (E)-hex-2-enoyl-L-valinate] | > 50 µM | 4.4 @ | 
CCC/C=C/C(=O)N[C@@H](Cc1ccccc1)C(=O)OC [Compound 176, Methyl (E)-hex-2-enoyl-L-phenylalaninate] |  | 8.4 @ | 
CCC/C=C/C(=O)N[C@@H](Cc1ccccc1)C(=O)OCC [Compound 177, Ethyl (E)-hex-2-enoyl-L-phenylalaninate] | ~40 µM | 8.8 @ | 
C/C=C/C=C/C(=O)N[C@H](C(=O)OCC)C(C)C [Compound 179, Ethyl ((2E,4E)-hexa-2,4-dienoyl)-L-valinate] | > 50 µM | 3.0 @ | 
C/C=C/C=C/C(=O)N[C@@H](Cc1ccccc1)C(=O)OCC [Compound 180, Ethyl ((2E,4E)-hexa-2,4-dienoyl)-L-phenylalaninate] | > 50 µM | 3.4 @ | 
C/C=C/C=C/C(=O)N[C@@H](CC(C)C)C(=O)OCC [Compound 181, Ethyl ((2E,4E)-hexa-2,4-dienoyl)-L-leucinate] | > 50 µM | 4.5 @ | 
C/C=C/C=C/C(=O)N[C@H](C(=O)OCC)[C@@H](C)CC [Compound 183, Ethyl ((2E,4E)-hexa-2,4-dienoyl)-L-isoleucinate] | > 50 µM | 2.8 @ | 

Now from value to compound:

EC50 | MSG Enh. Ratio (compound at 50 μM) | MSG Enh. Ratio (compound at 10 μM) | Compound
> 50 µM | 3.1 @ |  | COC(=O)CC[C@H](NC(=O)/C=C/C(C)C)C(=O)OC [Compound 173, Dimethyl (E)-(4-methylpent-2-enoyl)-L-glutamate]
30 µM |  | 3.6 @ | CCC/C=C/C(=O)N[C@H](C(=O)OC)[C@@H](C)CC [Compound 174, Methyl ((E)-hex-2-enoyl)-L-isoleucinate]
> 50 µM | 5.6 @ |  | CCC/C=C/C(=O)N[C@@H](CCC(=O)OCC)C(=O)OCC [Compound 178, Diethyl (E)-hex-2-enoyl-L-glutamate]
> 50 µM | 3.4 @ |  | C/C=C/C=C/C(=O)N[C@@H](CCC(=O)OCC)C(=O)OCC [Compound 182, Diethyl ((2E,4E)-hexa-2,4-dienoyl)-L-glutamate]
